Assay results from patent US20130030055A1, “COMPOSITIONS AND METHODS FOR TREATING HAIR LOSS, HAIR THINNING, AND HAIR COLOR LOSS” (priority 2010, published 2013).

Experiments:
Assay type in all cases: in vivo, human
[1] = tested on: eyelashes; assay: Randomized vehicle-controlled study: overall eyelash prominence by GEA scale; details: week 16; ITT; 0.03% solution once daily to upper eyelid margins (107/137); p<0.0001 vs vehicle
Protocol: The objective of this study was to evaluate the safety and efficacy of bimatoprost 0.03% solution once daily compared with vehicle in increasing overall eyelash prominence following dermal administration to the upper eyelid margins.
During the screening visit, each subject was assessed for inclusion/exclusion criteria. Qualifying subjects were randomly allocated in a 1:1 ratio to treatment with bimatoprost 0.03% solution or vehicle, to be applied to both upper eyelid margins once daily in the evening for 4 months.
Subjects applied study medication to the upper eyelid margins using the supplied, disposable, single-use-per-eye applicator once daily in the evening for 4 months. Subjects were instructed to dab or blot any excess study medication runoff on the area outside the upper eyelash margin with a tissue or other absorbent cloth; the upper lid margin was to feel evenly and lightly moist without runoff. Subjects were instructed not to apply study medication to the lower eyelash line. […]
For the primary efficacy endpoint, a clinical response was defined as at least a 1-grade increase in the GEA score from baseline at month 4 (week 16). […] The proportion of subjects with at least a 1-grade increase from baseline was summarized by a frequency table and analyzed by the Pearson's chi-square test for 2-by-2 tables at each visit. […]

[2] = Randomized vehicle-controlled study: intraocular pressure; details: eye as sampling unit
Protocol: Safety measurements collected during this study included adverse events, ophthalmic examination variables (iris color, IOP, visual acuity, biomicroscopy, and ophthalmoscopy), physical examination, vital signs, and pregnancy testing.
Iris color was recorded for each subject at every study visit. Iris color was grouped as light (blue, blue-gray, blue/gray-brown, green, green-brown, hazel, and other) and dark (brown and dark brown). If the “other” category contained black in the description, it was grouped as dark. IOP (measured at approximately the same time of day at each visit), visual acuity, and biomicroscopy data were collected at screening, week 1, and months 1, 2, 3, 4, and 5. Ophthalmoscopy (dilated) was performed at screening and month 4.
IOP measurements were collected twice for each eye. If the 2 measurements differed by more than 2 mmHg, a third measurement was taken on that eye. If 2 measurements were collected, the average of the 2 was recorded as the IOP for a particular eye; if a third measurement was collected, the median measurement was recorded as the IOP for that eye. As all subjects were treated bilaterally, the average of the subject's right and left eye IOP values was analyzed for each time point. In the case where data were collected for only 1 eye, the collected data served as the IOP for the subject at that time point. […] Within-group changes from baseline were analyzed by the paired t-test. All analyses were based on observed cases and no data imputations were performed.
All adverse events were summarized and analyzed by the following subgroups: age (<45, 45 to 65, and >65 years), gender, and race (Caucasian and non-Caucasian). This was performed for both the treatment and posttreatment periods. Analyses of IOP were stratified by 3 subgroups, according to baseline IOP (8 to 12 mm Hg, >12 to 15 mm Hg, and >15 mm Hg). These ranges were determined by taking the bottom tercile, middle tercile, and the top tercile of baseline IOPs. The sampling unit was the “eye” (ie, each subject contributed 2 data points). Within each of the subgroups, the number and percent of subjects with an IOP of ≦6 mmHg was summarized by treatment group and visit utilizing a frequency table and was analyzed by the Pearson's chi-square test or Fisher's exact tables for 2-by-2 tables for each visit. The sampling unit was the eye and not the subject. In addition, a scatterplot of baseline IOP versus final IOP for each treatment group was presented for the treatment period and post-treatment period.

[3] = tested on: eyebrows; assay: Eyebrow growth after chemotherapy-induced eyebrow loss (Example 3); details: person, eyebrows lost after chemotherapy
From the text: A person participates in a clinical study for eyebrow growth. The patient has lost both their eyebrows as a result of recent treatments of chemotherapy. Bimatoprost 0.03% is applied along the eyebrow line of both eyes. After approximately 4 weeks, the person begins to experience eyebrow growth. […] The person is extremely satisfied with the results and no longer needs to apply make-up in place of real eyebrows.

Compound: CCNC(=O)CCC/C=C\C[C@@H]1[C@@H](/C=C/[C@@H](O)CCc2ccccc2)[C@H](O)C[C@@H]1O [bimatoprost]
- Subjects with at least a 1-grade increase from baseline in overall eyelash prominence (GEA scale) [1]: 78.1%
- Intraocular pressure, Max ([2]; Week 12): 3.5 mmHg
- Intraocular pressure, Median ([2]; Week 12): −1.25 mmHg
- Intraocular pressure, Min ([2]; Week 12): −7.0 mmHg
- Intraocular pressure, Mean ([2]; Week 12, N 252): −1.54 mmHg
- Intraocular pressure, Max ([2]; Week 16): 6.0 mmHg
- Intraocular pressure, Median ([2]; Week 16): −1.50 mmHg
- Intraocular pressure, Min ([2]; Week 16): −7.5 mmHg
- Intraocular pressure, Mean ([2]; Week 16, N 252): −1.25 mmHg
- Intraocular pressure, Max ([2]; Week 20 (post-treatment)): 5.0 mmHg
- Intraocular pressure, Median ([2]; Week 20 (post-treatment)): −0.50 mmHg
- Intraocular pressure, Min ([2]; Week 20 (post-treatment)): −7.5 mmHg
- Intraocular pressure, Mean ([2]; Week 20 (post-treatment), N 262): −0.67 mmHg
- Eyebrow outcome following the study [3]: full, long eyebrows
- Time until eyebrow growth begins ([3]; applied along eyebrow line of both eyes): approximately 4 weeks
